According to paper PMC8631740 (Nano Letters, 2021):

Biological target: PDZ-mNG (Homo sapiens, UniProt Q96RT1)
Test: Binding kinetics of PDZ-mNG to peptDTWV in fixed COS7 cells
Assay type: cell-based
Conditions: PFA or PFA/GA fixation, compared with kinetics at nanoparticles; result in words

RGSIDTWV-cooh [peptDTWV]
effect of fixation on peptDTWV/PDZ-mNG interaction: not affected by fixation
